Experimental data published in patent US8414926B1, “Nanoparticles with covalently bound surfactant for drug delivery” (University of South Florida, priority 2006, dated 2013).
Counter-ions that a name gives are not always drawn.

Tested on: human dermal fibroblasts
Test: Effect of surfactant combined with control nanoparticles on fibroblasts
Format: cell-based
Settings: for toxicity to fibroblasts: combined with control nanoparticles, human dermal fibroblasts
Experimental: FIG. 1 is a graph showing the effect of dodecyl sulfate combined with control nanoparticles against human dermal fibroblasts.
The control nanoparticles were added to the wells as an emulsion having 5% solid content, which reduced the amount of surfactant to 0.75%; therefore, more surfactant was added to the emulsion prior to placement in the cell-containing wells in order to reach the designated amounts of surfactant being tested. […] This may be due to interactions of the surfactant with the nanoparticles, which may prohibit the surfactant from interacting with the cells.

In the case of CCCCCCCCCCCCOS(=O)(=O)O [dodecyl sulfate], the toxicity to fibroblasts (1% surfactant) was “least toxic”, the toxicity to fibroblasts (9% surfactant) was “kills all of the cells” and the “toxicity to fibroblasts combined with control nanoparticles versus without control nanoparticles” value (healthy fibroblasts) was “much less toxic”.
